Reference: patent publication US8569302B2, “Inhibitors of flaviviridae viruses” (Gilead Sciences, Inc., priority 2009, dated 2013)

Tested on: human hepatoma Huh-7 cell line harboring a HCV replicon
Test: HCV replicon assay (inhibition of viral replication, luciferase readout)
Type: cell-based
Conditions: Hepatitis C virus, 72 h, Huh-7 HCV replicon cells, 3 days incubation
Experimental: The anti-HCV activity of the compounds of this invention was tested in a human hepatoma Huh-7 cell line harboring a HCV replicon. The assay comprised the following steps:
Step 1: Compound Preparation and Serial Dilution.
Serial dilution was performed in 100% DMSO in a 384-well plate. A solution containing a compound at 225-fold concentration of the starting final serial dilution concentration was prepared in 100% DMSO and 15 μL added to the pre-specified wells in column 3 or 13 of a polypropylene 384-well plate. The rest of the 384-well plate was filled with 10 μL 100% DMSO except for columns 23 and 24, where 10 μL of 500 μM a HCV protease inhibitor (ITMN-191) in 100% DMSO was added. The HCV protease inhibitor was used a control of 100% inhibition of HCV replication. The plate was then placed on a Biomek FX Workstation to start the serial dilution. The serial dilution was performed for ten cycles of 3-fold dilution from column 3 to 12 or from column 13 to 22.
Step 2: Cell Culture Plate Preparation and Compound Addition
To each well of a black polypropylene 384-well plate, 90 μL of cell media containing 1600 suspended Huh-7 HCV replicon cells was added with a Biotek uFlow Workstation. A volume of 0.4 μL of the compound solution was transferred from the serial dilution plate to the cell culture plate on a Biomek FX Workstation. The DMSO concentration in the final assay condition was 0.44%. The plates were incubated for 3 days at 37° C. with 5% CO2 and 85% humidity.
Step 3: Detection of Cytotoxicity and Inhibition of Viral Replication
a) Assessment of cytotoxicity: The media in the 384-well cell culture plate was aspirated with a Biotek EL405 plate-washer. A volume of 50 μL of a solution containing 400 nM Calcein AM in 100% PBS was added to each well of the plate with a Biotek uFlow Workstation. The plate was incubated for 30 minutes at room temperature before the fluorescence signal ([…]) was measured with a Perkin Elmer Envision Plate Reader.
b) Assessment of inhibition of viral replication: The calcein-PBS solution in the 384-well cell culture plate was aspirated with a Biotek EL405 plate-washer. A volume of 20 μL of Dual-Glo luciferase buffer (Promega, Dual-Glo Luciferase Assay Reagent, cat. #E298B) was added to each well of the plate with a Biotek uFlow Workstation. The plate was incubated for 10 minutes at room temperature. A volume of 20 μL of a solution containing 1:100 mixture of Dual-Glo Stop & Glo substrate (Promega, Dual-Glo Luciferase Assay Reagent, cat. #E313B) and Dual-Glo Stop & Glo buffer (Promega, Dual-Glo Luciferase Assay Reagent, cat. #E314B) was then added to each well of the plate with a Biotek uFlow Workstation. The plate was incubated at room temperature for 10 minutes before the luminescence signal was measured with a Perkin Elmer Envision Plate Reader.
The percent cytotoxicity was determined by calcein AM conversion to fluorescent product. The average fluorescent signal from the DMSO control wells was defined as 100% nontoxic. The individual fluorescent signal from testing compound treated well was divided by the average signal from DMSO control wells and then multiplied by 100% to get the percent viability. The percent anti-HCV replication activity was determined by the luminescence signal from the testing well compared to DMSO control wells. The background signal was determined by the average luminescence signal from the HCV protease inhibitor treated wells and was subtracted from the signal from the testing wells as well as the DMSO control wells. Following 3-fold serial dilutions, the EC50 and CC50 values were calculated by fitting % inhibition at each concentration to the following equation: % inhibition=100%/[EC50/[I])^b+1]
Where b is Hill's coefficient. See, for reference, Hill, A. V., The Possible Effects of the Aggregation of the Molecules of Hæmoglobin on its Dissociation Curves, J. Physiol. 40: iv-vii. (1910). […]

| SMILES | inhibition at 2 µM |
| --- | --- |
| Cc1ccc(O[C@H]2CC[C@H](N(c3cc(C#CC(C)(C)C)sc3C(=O)O)C(=O)[C@H]3CC[C@H](C)CC3)CC2)nn1 [Compound 3, 5-(3,3-Dimethyl-but-1-ynyl)-3-{(trans-4-methyl-cyclohexanecarbonyl)-[trans-4-(6-methyl-pyridazin-3-yloxy)-cyclohexyl]-amino}-thiophene-2-carboxylic acid] | 100% |
| CC(C)(C)C#Cc1cc(N(C(=O)[C@H]2CC[C@H](C)CC2)[C@H]2CC[C@H](Oc3ncccn3)CC2)c(C(=O)O)s1 [Compound 4, 5-(3,3-Dimethyl-but-1-ynyl)-3-{(trans-4-methyl-cyclohexanecarbonyl)-[trans-4-(pyrimidin-2-yloxy)-cyclohexyl]-amino}-thiophene-2-carboxylic acid] | 99.9% |
| CC(C)(C)C#Cc1cc(N(C(=O)[C@H]2CC[C@H](C)CC2)[C@H]2CC[C@H](Oc3cccnc3)CC2)c(C(=O)O)s1 [Compound 5, 5-(3,3-Dimethyl-but-1-ynyl)-3-{(trans-4-methyl-cyclohexanecarbonyl)-[trans-4-(pyridin-3-yloxy)-cyclohexyl]-amino}-thiophene-2-carboxylic acid] | 99.8% |
| CC(C)(C)C#Cc1cc(N(C(=O)[C@H]2CC[C@H](C)CC2)[C@H]2CC[C@H](Oc3cccc(S(C)(=O)=O)n3)CC2)c(C(=O)O)s1 [Compound 6, 5-(3,3-Dimethyl-but-1-ynyl)-3-[[trans-4-(6-methanesulfonyl-pyridin-2-yloxy)-cyclohexyl]-(trans-4-methyl-cyclohexanecarbonyl)-amino]-thiophene-2-carboxylic acid] | 99.9% |
| Cc1ccc(O[C@H]2CC[C@H](N(c3cc(C#CC(C)(C)C)sc3C(=O)O)C(=O)[C@H]3CC[C@H](C)CC3)CC2)cn1 [Compound 7, 5-(3,3-Dimethyl-but-1-ynyl)-3-{(trans-4-methyl-cyclohexanecarbonyl)-[trans-4-(6-methyl-pyridin-3-yloxy)-cyclohexyl]-amino}-thiophene-2-carboxylic acid] | 99.8% |
| Cc1cccc(O[C@H]2CC[C@H](N(c3cc(C#CC(C)(C)C)sc3C(=O)O)C(=O)[C@H]3CC[C@H](C)CC3)CC2)n1 [Compound 8, 5-(3,3-Dimethyl-but-1-ynyl)-3-{(trans-4-methyl-cyclohexanecarbonyl)-[trans-4-(6-methyl-pyridin-2-yloxy)-cyclohexyl]-amino}-thiophene-2-carboxylic acid] | 96.7% |
| CC(C)(C)C#Cc1cc(N(C(=O)[C@H]2CC[C@H](C)CC2)[C@H]2CC[C@H](Oc3ccc(C#N)cn3)CC2)c(C(=O)O)s1 [Compound 9, 3-[[trans-4-(5-Cyano-pyridin-2-yloxy)-cyclohexyl]-(trans-4-methyl-cyclohexanecarbonyl)-amino]-5-(3,3-dimethyl-but-1-ynyl)-thiophene-2-carboxylic acid] | 99.3% |
| CC(C)(C)C#Cc1cc(N(C(=O)[C@H]2CC[C@H](C)CC2)[C@H]2CC[C@H](Oc3ccc(C(F)(F)F)cn3)CC2)c(C(=O)O)s1 [Compound 10, 5-(3,3-Dimethyl-but-1-ynyl)-3-{(trans-4-methyl-cyclohexanecarbonyl)-[trans-4-(5-trifluoromethyl-pyridin-2-yloxy)-cyclohexyl]-amino}-thiophene-2-carboxylic acid] | 56.2% |
| Cc1ccc(O[C@H]2CC[C@H](N(c3cc(C#CC(C)(C)C)sc3C(=O)O)C(=O)[C@H]3CC[C@H](C)CC3)CC2)nc1 [Compound 11, 5-(3,3-Dimethyl-but-1-ynyl)-3-{(trans-4-methyl-cyclohexanecarbonyl)-[trans-4-(5-methyl-pyridin-2-yloxy)-cyclohexyl]-amino}-thiophene-2-carboxylic acid] | 99.9% |
| Cc1cccnc1O[C@H]1CC[C@H](N(c2cc(C#CC(C)(C)C)sc2C(=O)O)C(=O)[C@H]2CC[C@H](C)CC2)CC1 [Compound 12, 5-(3,3-Dimethyl-but-1-ynyl)-3-{(trans-4-methyl-cyclohexanecarbonyl)-[trans-4-(3-methyl-pyridin-2-yloxy)-cyclohexyl]-amino}-thiophene-2-carboxylic acid] | 99.7% |
| CC(C)(C)C#Cc1cc(N(C(=O)[C@H]2CC[C@H](C)CC2)[C@H]2CC[C@H](Oc3cccc(C#N)n3)CC2)c(C(=O)O)s1 [Compound 13, 3-[[trans-4-(6-Cyano-pyridin-2-yloxy)-cyclohexyl]-(trans-4-methyl-cyclohexanecarbonyl)-amino]-5-(3,3-dimethyl-but-1-ynyl)-thiophene-2-carboxylic acid] | 99.3% |
| CC(C)(C)C#Cc1cc(N(C(=O)[C@H]2CC[C@H](C)CC2)[C@H]2CC[C@H](Oc3ccc(=O)[nH]n3)CC2)c(C(=O)O)s1 [Compound 14, 5-(3,3-Dimethyl-but-1-ynyl)-3-{(trans-4-methyl-cyclohexanecarbonyl)-[trans-4-(6-oxo-1,6-dihydropyridazin-3-yloxy)-cyclohexyl]-amino}-thiophene-2-carboxylic acid] | 100% |
| CC(C)(C)C#Cc1cc(N(C(=O)[C@H]2CC[C@H](C)CC2)[C@H]2CC[C@H](Oc3nccs3)CC2)c(C(=O)O)s1 [Compound 15, 5-(3,3-Dimethyl-but-1-ynyl)-3-{(trans-4-methyl-cyclohexanecarbonyl)-[trans-4-(thiazol-2-yloxy)-cyclohexyl]-amino}-thiophene-2-carboxylic acid] | 99.6% |
| CC(C)(C)C#Cc1cc(N(C(=O)[C@H]2CC[C@H](C)CC2)[C@H]2CC[C@H](Oc3ncccc3C(F)(F)F)CC2)c(C(=O)O)s1 [Compound 16, 5-(3,3-Dimethyl-but-1-ynyl)-3-{(trans-4-methyl-cyclohexanecarbonyl)-[trans-4-(3-trifluoromethyl-pyridin-2-yloxy)-cyclohexyl]-amino}-thiophene-2-carboxylic acid] | 75.1% |
| CC(C)(C)C#Cc1cc(N(C(=O)[C@H]2CC[C@H](C)CC2)[C@H]2CC[C@H](Oc3cccc(C(F)(F)F)n3)CC2)c(C(=O)O)s1 [Compound 17, 5-(3,3-Dimethyl-but-1-ynyl)-3-{(trans-4-methyl-cyclohexanecarbonyl)-[trans-4-(6-trifluoromethyl-pyridin-2-yloxy)-cyclohexyl]-amino}-thiophene-2-carboxylic acid] | 67.6% |
| CC(C)(C)C#Cc1cc(N(C(=O)[C@H]2CC[C@H](C)CC2)[C@H]2C[C@@H](Oc3cccnc3)C2)c(C(=O)O)s1 [Compound 20, 5-(3,3-Dimethyl-but-1-ynyl)-3-{(trans-4-methyl-cyclohexanecarbonyl)-[cis-3-(pyridin-3-yloxy)-cyclobutyl]-amino}-thiophene-2-carboxylic acid] | 99.8% |
| CC(C)(C)C#Cc1cc(N(C(=O)[C@H]2CC[C@H](C)CC2)[C@H]2C[C@H](Oc3cccnc3)C2)c(C(=O)O)s1 [Compound 21, 5-(3,3-Dimethyl-but-1-ynyl)-3-[(trans-4-methyl-cyclohexanecarbonyl)-{trans-3-(pyridin-3-yloxy)-cyclobutyl]-amino}-thiophene-2-carboxylic acid] | 98.8% |
| CC(C)(C)C#Cc1cc(N(C(=O)[C@H]2CC[C@H](C)CC2)[C@H]2C[C@@H](Oc3ncccn3)C2)c(C(=O)O)s1 [Compound 22, 5-(3,3-Dimethyl-but-1-ynyl)-3-{(trans-4-methyl-cyclohexanecarbonyl)-[cis-3-(pyrimidin-2-yloxy)-cyclobutyl]-amino}-thiophene-2-carboxylic acid] | 96.2% |
